# Reference: patent publication US20260008775A1, “AZOLE MODULATORS OF CHOLESTEROL BIOSYNTHESIS AND THEIR USE FOR PROMOTING REMYELINATION” (GENENTECH, INC., priority 2022, published 2026)
# Key:
# EpiSC-derived OPCs = assay: In vitro phenotypic screening of OPCs, MBP high-content imaging (percentage of oligodendrocytes); type: cell-based, mouse; conditions: Mus musculus, 72 h, 3 days, MBP stain, dose-response 0.5 nM to 1000 nM; read-out: OPC EC50
# In short: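 EC50 was fitted by Hill equation to the MBP-positive oligodendrocyte percentage from imaging of fixed, MBP- and DAPI-stained cells. Treatment lasted 3 days at 37 °C, final doses 0.5–1000 nM over 8 points, in growth factor-free N2B27. Cells were EpiSC-derived OPCs, tested in at least two independent platings.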
# [1] = target: human emopamil binding protein and human 7-dehydrocholesterol reductase (hEBP-DHCR7) (Homo sapiens (Human), UniProt Q15125); assay: hEBP-DHCR7 radioligand binding assay (filter binding, membranes of co-expressing HEK293 cells); conditions: competition with [3H] radioligand, 8 doses 0.06 to 5000 nM, Ki calculated from IC50
# In short: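 Compound, either single dose 1 μM or eight 5-fold dilutions from 0.06 to 5000 nM, competed with a [3H]-labelled ligand added at 25 nM for binding to co-expressing HEK293 membranes. IC50 came from nonlinear regression, with full block and DMSO as controls, then Cheng–Prusoff conversion to Ki.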
# [2] = system: zymostenol accumulation (EBP) in EpiSC-derived OPCs; assay: GC/MS-based sterol profiling, zymostenol accumulation in EpiSC-derived OPCs; type: cell-based, mouse; conditions: Mus musculus, 24 h, EpiSC-derived OPCs, 24 hr, 8 doses from 0.15 nM to 333 nM; read-out: Mouse Zymostenol GCMS EC50
# In short: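 Zymostenol level is expressed relative to that after 24 h with 100 nM positive-control reference, measured by full-scan GC/MS (m/z 458) with cholesterol-d7 internal standard after BSTFA derivatisation. Cells were EpiSC-derived OPCs, 100,000/well in N2B27 without growth factors, treated 24 h, from two or more independent platings.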
# Chain of human emopamil binding protein and human 7-dehydrocholesterol reductase (hEBP-DHCR7) (Q15125 whole entry): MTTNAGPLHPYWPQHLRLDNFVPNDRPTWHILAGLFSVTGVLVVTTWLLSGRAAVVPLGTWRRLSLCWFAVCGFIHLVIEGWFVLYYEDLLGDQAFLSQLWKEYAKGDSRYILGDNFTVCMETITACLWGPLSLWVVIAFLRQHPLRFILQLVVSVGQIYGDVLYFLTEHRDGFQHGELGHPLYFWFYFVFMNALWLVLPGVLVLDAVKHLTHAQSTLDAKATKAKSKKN
Structure (SMILES),EC50 (EpiSC-derived OPCs) [nM],Ki [1] [nM],EC50 [2] [nM]
"CCn1nc(-c2ccc(C(F)(F)F)nc2)nc1[C@H]1CC[C@@H](N2CCCOCC2)CC1 [7*, 4-((1s,4s)-4-(1-ethyl-3-(6-(trifluoromethyl)pyridin-3-yl)-1H-1,2,4-triazol-5-yl)cyclohexyl)-1,4-oxazepane]",158,135,26.3
"CCn1nc(-c2ccc(C(F)(F)F)nc2)nc1[C@H]1CC[C@H](N2CCCOCC2)CC1 [8*, 4-((1r,4r)-4-(1-ethyl-3-(6-(trifluoromethyl)pyridin-3-yl)-1H-1,2,4-triazol-5-yl)cyclohexyl)-1,4-oxazepane]",280,38.2,44.8
"CC(C)n1nc(-c2cccc(C(F)(F)F)c2)nc1[C@H]1[C@@H]2C[C@H](N3CCOCC3)C[C@@H]21 [19*, 4-((1R,3r,5S,6r)-6-(1-isopropyl-3-(3-(trifluoromethyl)phenyl)-1H-1,2,4-triazol-5-yl)bicyclo[3.1.0]hexan-3-yl)morpholine]",140,9.93,7.92
"CC(C)n1nc(-c2ccc(C(F)(F)F)nc2)nc1[C@@H]1CC[C@H](N2CCCOCC2)C1 [Compound 4, 4-((1S,3R)-3-(1-isopropyl-3-(6-(trifluoromethyl)pyridin-3-yl)-1H-1,2,4-triazol-5-yl)cyclopentyl)-1,4-oxazepane]",38.7,8.28,12.3
"CC(C)n1nc(-c2ccc(C(F)(F)F)nc2)nc1[C@H]1CC[C@H](N2CCCOCC2)C1 [Compound 5, 4-((1S,3S)-3-(1-isopropyl-3-(6-(trifluoromethyl)pyridin-3-yl)-1H-1,2,4-triazol-5-yl)cyclopentyl)-1,4-oxazepane]",196,52.7,44.2
"CC(C)n1nc(-c2ccc(C(F)(F)F)nc2)nc1[C@H]1CC[C@@H](N2CCCOCC2)C1 [Compound 6, 4-((1R,3S)-3-(1-isopropyl-3-(6-(trifluoromethyl)pyridin-3-yl)-1H-1,2,4-triazol-5-yl)cyclopentyl)-1,4-oxazepane]",34.3,34.7,10.5
"CC(C)n1nc(-c2cncc(C(F)(F)F)c2)cc1[C@H]1[C@@H]2C[C@H](N3CCCOCC3)C[C@@H]21 [Compound 29, 4-((1R,3s,5S,6r)-6-(1-Isopropyl-3-(5-(trifluoromethyl)pyridin-3-yl)-1H-pyrazol-5-yl)bicyclo [3.1.0]hexan-3-yl)-1,4-oxazepane]",19.8,20,3.19
"CC(C)n1nc(-c2cccc(C(F)(F)F)n2)cc1[C@H]1[C@@H]2C[C@@H](N3CCOCC3)C[C@@H]21 [Compound 31, 4-((1R,3s,5S,6r)-6-(1-Isopropyl-3-(6-(trifluoromethyl)pyridin-2-yl)-1H-pyrazol-5-yl)bicyclo[3.1.0]hexan-3-yl)morpholine]",643,100,241
"CC(C)n1nc(-c2cccc(C(F)(F)F)n2)cc1[C@H]1[C@@H]2C[C@H](N3CCOCC3)C[C@@H]21 [Compound 32, 4-((1R,3r,5S,6r)-6-(1-isopropyl-3-(6-(trifluoromethyl)pyridin-2-yl)-1H-pyrazol-5-yl)bicyclo[3.1.0]hexan-3-yl)morpholine]",354,34.5,52
"CC(C)n1nc(-c2cncc(C(F)(F)F)c2)cc1[C@H]1[C@@H]2C[C@@H](N3CCOC(C)(C)C3)C[C@@H]21 [Compound 33, 4-((1R,3s,5S,6r)-6-(1-Isopropyl-3-(5-(trifluoromethyl)pyridin-3-yl)-1H-pyrazol-5-yl)bicyclo[3.1.0]hexan-3-yl)-2,2-dimethylmorpholine]",30.5,19.4,5.33
"CC(C)n1nc(-c2cncc(C(F)(F)F)c2)cc1[C@H]1[C@@H]2C[C@H](N3CCOC(C)(C)C3)C[C@@H]21 [Compound 34, 4-((1R,3r,5S,6r)-6-(1-isopropyl-3-(5-(trifluoromethyl)pyridin-3-yl)-1H-pyrazol-5-yl)bicyclo[3.1.0]hexan-3-yl)-2,2-dimethylmorpholine]",354,34.5,52
"CC(C)n1nc(-c2ccc(C(F)(F)F)nc2)cc1[C@H]1[C@@H]2C[C@@H](N3CCCOCC3)C[C@@H]21 [Compound 47, 4-((1R,3S,5S,6R)-6-(1-Isopropyl-3-(6-(trifluoromethyl)pyridin-3-yl)-1H-pyrazol-5-yl)bicyclo[3.1.0]hexan-3-yl)-1,4-oxazepane]",145,43,46
"CC(C)n1nc(-c2ccc(C(F)(F)F)nc2)cc1[C@H]1[C@@H]2C[C@H](N3CCCOCC3)C[C@@H]21 [Compound 48, 4-((1R,3S,5S,6R)-6-(1-Isopropyl-3-(6-(trifluoromethyl)pyridin-3-yl)-1H-pyrazol-5-yl)bicyclo[3.1.0]hexan-3-yl)-1,4-oxazepane]",11.6,18.4,7.28
"CC(C)n1nc(-c2cccc(C(F)(F)F)n2)cc1[C@H]1[C@@H]2C[C@@H](N3CCCOCC3)C[C@@H]21 [Compound 49, 4-((1R,3s,5S,6r)-6-(1-Isopropyl-3-(6-(trifluoromethyl)pyridin-2-yl)-1H-pyrazol-5-yl)bicyclo[3.1.0]hexan-3-yl)-1,4-oxazepane]",75,53,42
"CC(C)n1nc(-c2cccc(C(F)(F)F)n2)cc1[C@H]1[C@@H]2C[C@H](N3CCCOCC3)C[C@@H]21 [Compound 50, 4-((1R,3r,5S,6r)-6-(1-Isopropyl-3-(6-(trifluoromethyl)pyridin-2-yl)-1H-pyrazol-5-yl)bicyclo[3.1.0]hexan-3-yl)-1,4-oxazepane]",7.72,21,1.62
"CC(C)n1nc(-c2cncc(C(F)(F)F)c2)nc1[C@H]1[C@@H]2C[C@H](N3CCCOCC3)C[C@@H]21 [Compound 51, 4-((1R,3r,5S,6r)-6-(1-Isopropyl-3-(5-(trifluoromethyl)pyridin-3-yl)-1H-1,2,4-triazol-5-yl)bicyclo[3.1.0]hexan-3-yl)-1,4-oxazepane]",82.5,358,77
"CC(C)n1nc(-c2cncc(C(F)(F)F)c2)nc1[C@H]1[C@@H]2C[C@@H](N3CCCOCC3)C[C@@H]21 [Compound 52, 4-((1R,3s,5S,6r)-6-(1-Isopropyl-3-(5-(trifluoromethyl)pyridin-3-yl)-1H-1,2,4-triazol-5-yl)bicyclo[3.1.0]hexan-3-yl)-1,4-oxazepane]",6.29,18.1,3.1
"CCn1nc(-c2cncc(C(F)(F)F)c2)cc1[C@H]1[C@@H]2C[C@@H](N3CCCOCC3)C[C@@H]21 [Compound 53, 4-((1R,3s,5S,6r)-6-(1-Ethyl-3-(5-(trifluoromethyl)pyridin-3-yl)-1H-pyrazol-5-yl)bicyclo[3.1.0]hexan-3-yl)-1,4-oxazepane]",75,12.5,13.8
"CCn1nc(-c2cncc(C(F)(F)F)c2)cc1[C@H]1[C@@H]2C[C@H](N3CCCOCC3)C[C@@H]21 [Compound 54, 4-((1R,3r,5S,6r)-6-(1-ethyl-3-(5-(trifluoromethyl)pyridin-3-yl)-1H-pyrazol-5-yl)bicyclo[3.1.0]hexan-3-yl)-1,4-oxazepane]",12.4,10.6,3
"CC(C)n1nc(-c2cccc(C(F)(F)F)c2)nc1[C@H]1[C@@H]2C[C@@H](N3CCOC[C@@H]3C)C[C@@H]21 [Compound 66, (S)-4-((1R,3r,5S,6S)-6-(1-Isopropyl-3-(3-(trifluoromethyl)phenyl)-1H-1,2,4-triazol-5-yl)bicyclo[3.1.0]hexan-3-yl)-3-methylmorpholin]",14.9,50.2,2.84
"CC(C)n1nc(-c2cccc(C(F)(F)F)c2)nc1[C@H]1[C@@H]2C[C@H](N3CCOC[C@@H]3C)C[C@@H]21 [Compound 67, (S)-4-((1R,3s,5S,6S)-6-(1-Isopropyl-3-(3-(trifluoromethyl)phenyl)-1H-1,2,4-triazol-5-yl)bicyclo[3.1.0]hexan-3-yl)-3-methylmorpholine]",233,50,66.5
"CC(C)n1nc(-c2cncc(OC(F)F)c2)nc1[C@H]1[C@@H]2C[C@@H](N3CCCOCC3)C[C@@H]21 [Compound 68, 4-((1R,3s,5S,6r)-6-(3-(5-(Difluoromethoxy)pyridin-3-yl)-1-isopropyl-1H-1,2,4-triazol-5-yl)bicyclo[3.1.0]hexan-3-yl)-1,4-oxazepane]",417,119,146
"CC(C)n1nc(-c2cncc(OC(F)F)c2)nc1[C@H]1[C@@H]2C[C@H](N3CCCOCC3)C[C@@H]21 [Compound 69, 4-((1R,3r,5S,6r)-6-(3-(5-(Difluoromethoxy)pyridin-3-yl)-1-isopropyl-1H-1,2,4-triazol-5-yl)bicyclo[3.1.0]hexan-3-yl)-1,4-oxazepane]",27.3,27.9,8.19
